Experimental data taken from paper PMC6321145 (Molecules, 2018).

Key:
Aβ1–42 [1] = molecular target: T1, Aβ1–42 (Homo sapiens, UniProt P05067); assay: Inhibition of self-induced Aβ1–42 aggregation (ThT fluorescence assay); format: biochemical
T1 construct: Aβ1–42 (Sigma, St. Louis, MO, USA; counterion, NaOH) stock solution was prepared by dissolving Aβ1–42 peptide in ammonium hydroxide; purchased Sigma
Description: The formation and aggregation of Aβ1–42 in the brain leads to neurotoxicity in AD. In order to evaluate the activity of our new synthetic compounds to inhibit Aβ1–42 self-induced aggregation, the thioflavin (ThT) fluorescence assay was performed.
All ThT experiments were performed according to our previously published methods. Aβ1–42 (Sigma, St. Louis, MO, USA; counterion, NaOH) stock solution was prepared by dissolving Aβ1–42 peptide in ammonium hydroxide (1% v/v), and diluting with 20 mM phosphate buffer (pH 7.4) to 100 μM. The tested compounds were firstly dissolved in DMSO at a concentration of 10 mM, and then diluted with 20 mM phosphate buffer (pH 7.4) to 40 μM.
For the inhibition of self-induced Aβ1–42 aggregation. Aβ1–42 peptide (2 μL, 50 μM, final concentration) with the tested compound (2 μL, 20 μM, final concentration) or 20 mM phosphate buffer (2 μL) was incubated in 20 mM phosphate buffer (pH 7.4) at 37 °C for 72 h. After incubation, the samples were diluted to a final volume of 36 μL with 50 mM glycine-NaOH buffer (pH 8.5) containing 5 μM Thioflavin T. Fluorescence signal was measured (excitation wavelength 450 nm, emission wavelength 485 nm, and slit widths set to 5 nm) on a monochromator-based multimode microplate reader ([…] M1000, TECAN, Hombrechtikon, Switzerland), adapted for 384-well microtiter plates. […] Each compound was examined in triplicate.

Aβ1–42 [2] = molecular target: T1, Aβ1–42; assay: Inhibition of Cu^2+-induced Aβ1–42 aggregation (ThT-binding assay); format: biochemical; details: [Aβ] = 20 μM, [Cu^2+] = 20 μM, [compound] = 40 μM; 37 °C, 24 h
Description: To investigate the ability of compound 6b1 to inhibit Cu^2+-induced Aβ1–42 aggregation, the ThT-binding assay was performed.
Aβ was diluted in […] (pH 6.6) with […]. The mixture of the peptide (10 μL, 20 μM, final concentration) with or without copper (10 μL, 20 μM, final concentration) and the test compound (10 μL, 40 μM, final concentration) was incubated at 37 °C for 24 h. The 30 μL of the sample was diluted to a final volume of 200 μL with 50 mM glycine-NaOH buffer (pH 8.0) containing thioflavin T (5 μM). The detection method was the same as that of self-induced Aβ aggregation experiment.

[3] = Cytotoxicity on SH-SY5Y cells (MTT); format: cell-based, human; details: human, SH-SY5Y neuroblastoma cells; MTT, 24 h; mean ± SEM of three measurements
Description: (§1) The cytotoxicity of our synthesized compounds was examined in human neuroblastoma SH-SY5Y cells. The cell viability was determined by using methyl thiazolyl tetrazolium (MTT) colorimetry, the cells were treated with different concentrations of compounds (0–100 μM). The result is shown in the Supplementary Materials (Table S1).
(§2) The cytotoxicities of the compounds were evaluated using the MTT assay. SH-SY5Y cells were subcultured in 96-well plates at a seeding density of 1 × 10^4 cells per well. After 24 h, the medium was removed and treated with different concentrations of tested compounds for 24 h at 37 °C. The survival of cells was determined with MTT assay. Then 80 μL of medium and 20 μL of MTT (0.5 mg/mL, final concentration) were added to each well and incubated for another 4 h. After the removal of MTT, the formazan crystals were dissolved in DMSO. The amount of formazan was measured using a microculture plate reader at the wavelength of 570 nm. Each concentration was performed in triplicate.

SH-SY5Y cells = assay: Cytotoxicity on SH-SY5Y cells (MTT); format: cell-based, human; details: 20 μM
Description: as §1, §2

Aβ1–42 fibrils [4] = molecular target: T2, Aβ1–42 fibrils (Homo sapiens, UniProt P05067); assay: TEM assay of Aβ1–42 fibrils; format: biochemical; details: compound 20 μM
T2 construct: Aβ1–42 (Sigma, St. Louis, MO, USA; counterion, NaOH) stock solution was prepared by dissolving Aβ1–42 peptide in ammonium hydroxide; purchased Sigma
Description: To further complement the ThT binding assay, A transmission electron microscopy (TEM) assay was employed to monitor and clarify the effect of compound 6b1 on Aβ1−42 aggregation.
(§3) The ability of compound 6b1 to disaggregate self-induced Aβ1–42 aggregation fibrils was also investigated. Aβ1–42 fibrils were prepared by incubating fresh Aβ1–42 for 24 h at 37 °C, and the test compound was added to the sample and incubated for another 24 h at 37 °C. Then the sample was analyzed by ThT binding assay and TEM assay.
Aβ1–42 peptide (Sigma) was dissolved in 20 mM phosphate buffer (pH 7.4) at 4 °C to 100 μM before use.
Aβ1–42 was incubated at 37 °C for 24 h. Then, 40 μM tested compound was added and incubated at 37 °C for another 24 h. The final concentrations of Aβ1–42 and the compounds were 50 μM and 20 μM, respectively. After incubation, aliquots (5 μL) of the samples were placed on a carbon-coated copper/rhodium grid for 2 min at room temperature. Each grid was stained with uranyl acetate (1%, 5 μL) for 2 min. Excess staining solution was removed and the specimen was transferred for imaging with transmission electron microscopy (JEOL JEM-1400, Tokyo, Japan).

Aβ1–42 fibrils [5] = molecular target: T2, Aβ1–42 fibrils; assay: Disaggregation of self-induced Aβ1–42 aggregation fibrils (ThT binding assay); format: biochemical; details: compound 20 μM, fibrils formed 24 h, then 24 h with compound, 37 °C
Description: as §3

[6] = tested on: SH-SY5Y human neuroblastoma cells; assay: Protective effect against Aβ1–42-induced toxicity in SH-SY5Y cells (MTT); format: cell-based
Description: The cytoprotective effect of compound 6b1 against Aβ1–42 damage in SH-SY5Y human neuroblastoma cell lines was determined by MTT assay. […] To investigate the protective effect of compound 6b1 on Aβ1–42 induced cell toxicity, SH-SY5Y cells exposed to Aβ1–42 (20 μM) were incubated with different concentrations of compound 6b1 (5, 10, and 20 μM) for 24 h, and the cell viability was tested.
SH-SY5Y cells were seeded in 96-well plates (1 × 10^4 cells per well) and exposed to Aβ1–42 (20 μM) in the presence of compound 6b1 at the increasing doses (0, 5, 10 and 20 μM). After 24 h and 48 h, cell viability was measured by the MTT assay.

AChE = AChE (Homo sapiens, UniProt P22303); assay: AChE inhibition (data not shown); format: biochemical
BuChE = BuChE (Homo sapiens, UniProt P06276); assay: BuChE inhibition (data not shown); format: biochemical
Chain of BuChE (P06276 29-602): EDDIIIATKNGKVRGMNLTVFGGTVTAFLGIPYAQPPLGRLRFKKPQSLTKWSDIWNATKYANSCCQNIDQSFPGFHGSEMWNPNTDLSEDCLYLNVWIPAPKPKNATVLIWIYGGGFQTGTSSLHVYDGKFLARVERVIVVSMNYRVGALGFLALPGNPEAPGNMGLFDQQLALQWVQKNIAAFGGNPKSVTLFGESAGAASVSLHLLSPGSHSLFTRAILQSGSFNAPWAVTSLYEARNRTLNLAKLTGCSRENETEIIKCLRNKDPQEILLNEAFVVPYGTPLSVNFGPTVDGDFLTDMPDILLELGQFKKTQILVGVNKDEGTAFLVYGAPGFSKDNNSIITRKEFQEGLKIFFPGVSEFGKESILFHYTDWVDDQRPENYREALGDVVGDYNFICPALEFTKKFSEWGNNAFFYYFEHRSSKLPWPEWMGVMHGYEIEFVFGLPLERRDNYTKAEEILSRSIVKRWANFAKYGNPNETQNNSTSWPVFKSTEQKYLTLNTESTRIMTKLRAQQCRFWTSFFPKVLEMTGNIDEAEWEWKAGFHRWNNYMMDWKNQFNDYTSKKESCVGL

T2 sequence (P05067 672-713): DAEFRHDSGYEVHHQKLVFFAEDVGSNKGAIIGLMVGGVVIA
T1 sequence (P05067 672-713): as above
Chain of AChE (P22303 32-614): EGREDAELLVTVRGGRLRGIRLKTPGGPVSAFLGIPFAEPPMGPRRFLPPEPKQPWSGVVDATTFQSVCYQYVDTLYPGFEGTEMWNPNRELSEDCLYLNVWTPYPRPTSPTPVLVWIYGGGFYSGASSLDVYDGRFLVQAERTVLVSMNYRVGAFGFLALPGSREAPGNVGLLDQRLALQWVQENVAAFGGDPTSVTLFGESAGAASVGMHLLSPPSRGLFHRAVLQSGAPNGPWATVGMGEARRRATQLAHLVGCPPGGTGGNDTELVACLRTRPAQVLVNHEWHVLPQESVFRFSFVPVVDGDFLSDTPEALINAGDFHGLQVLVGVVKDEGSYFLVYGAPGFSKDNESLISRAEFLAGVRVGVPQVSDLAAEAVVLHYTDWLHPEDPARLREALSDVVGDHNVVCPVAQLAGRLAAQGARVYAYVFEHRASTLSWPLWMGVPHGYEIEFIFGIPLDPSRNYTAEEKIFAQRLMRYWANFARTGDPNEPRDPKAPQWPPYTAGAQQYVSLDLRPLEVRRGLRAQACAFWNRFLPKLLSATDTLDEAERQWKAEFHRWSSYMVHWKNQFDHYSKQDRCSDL

CCN(CC)c1ccc(/C=C/c2cc(NCCCN(C)C)c3ccccc3n2)cc1 [Compound 6b1, (E)-N^1-(2-(4-(Diethylamino)styryl)quinolin-4-yl)-N^3,N^3-dimethylpropane-1,3-diamine]
IC50 (Aβ1–42 [1]; ThT fluorescence method, mean ± SD of three experiments, read-out: IC50 against self-induced Aβ1–42 aggregation): 4.5 ± 0.7 µM | inhibition at 20 µM (Aβ1–42 [1]; inhibitor 20 μM, Aβ1–42 50 μM, ThT, 37 °C, 72 h, mean ± SD): 95.3 ± 1.2% | Inhibition of Cu^2+-induced Aβ aggregation (Aβ1–42 [2]): 85.8% | IC50 at 24 h [3]: 254 µM | Effect on SH-SY5Y cell viability, compound alone (SH-SY5Y cells): does not affect cell viability | TEM: Aβ1–42 fibril formation in presence of compound (Aβ1–42 fibrils [4]; 37 °C, 24 h): only fewer thin fibrils and small bulk aggregates | TEM: disaggregation of Aβ1–42 fibrils (Aβ1–42 fibrils [4]; preformed fibrils, 24 h at 37 °C): could disaggregate more Aβ1–42 fibrils than resveratrol | Disaggregation ratio of self-induced Aβ1–42 fibrils (Aβ1–42 fibrils [5]): 64.3% | Cell viability against Aβ1–42-induced cytotoxicity ([6]; Aβ1–42 20 μM, compound 5, 10, 20 μM, 24 h): increased the cell viability | viability at 20 µM ([6]; Homo sapiens, SH-SY5Y, 48 h, read-out: Cell viability after co-incubation with Aβ1–42): 89.8% | Inhibitory activity toward AChE (AChE): weak | Inhibitory activity toward BuChE (BuChE): weak
